{"source": "patent US11666640B2", "about": "“Glucose oxidase compositions as a neonate anticonvulsant” (PENN STATE RESEARCH FOUNDATION, priority 2018, dated 2023)", "key": {"[1]": {"test_system": "cultured cortical neurons", "test": "Epileptiform burst activity in cultured cortical neurons (whole-cell patch-clamp)", "assay_type": "cell-based, mouse", "settings": "CTZ 10 μM, 24 hrs, blocker 100 μM", "method": "Mouse cortical neurons were prepared from newborn C57BL/6 mice as previously described. Qi et al., “Cyclothiazide induces robust epileptiform activity in rat hippocampal neurons both in vitro and in vivo” The Journal Of Physiology 571:605-618 (2006). Briefly, the newborn mouse cerebral cortices were dissected out in ice-cold HEPES-buffered saline solution, washed and digested with 0.05% trypsin-EDTA at 37° C. for 20 min. After deactivation of trypsin with serum-containing medium, cells were centrifuged, resuspended, and seeded on a monolayer of cortical astrocytes at a density of 10,000 cells/cm^2 in 24-well plates. The neuronal culture medium contained MEM (500 ml, Invitrogen), 5% fetal bovine serum (Atlanta Biologicals), 10 ml B-27 supplement (Invitrogen), 100 mg NaHCO3, 2 mM Glutamax (Invitrogen), and 25 units/ml penicillin & streptomycin. AraC (4 μM, Sigma) was added to inhibit the excessive proliferation of astrocytes. Cell cultures were maintained in a 5% CO2-humidified incubator at 37° C. for 14-21 days.\nThe cultured neurons were placed in the recording chamber with continuous perfusion of the bath solution consisting of (mM): 128 NaCl, 10 Glucose, 25 HEPES, 5 KCl, 2 CaCl2, 1 MgSO4, pH 7.3 adjusted with NaOH, and osmolarity ˜300 mOsm. For recording spontaneous firing under current clamp mode, pipettes were filled with an internal solution containing (in mM): 125 K-gluconate, 5 Na-phosphocreatine, 5 EGTA, 10 KCl, 10 HEPES, 4 Mg-ATP, 0.3 Na-GTP, 280-290 mOsm, pH 7.3 adjusted with KOH. Epileptiform activity in cultured neurons was induced either by 10 μM CTZ for 24 h, or 1 μM KA for 2 h, or 50 μM 4-AP for 2 h. The burst activity was defined as previously described. Qi et al., “Cyclothiazide induces robust epileptiform activity in rat hippocampal neurons both in vitro and in vivo” The Journal Of Physiology 571:605-618 (2006). In brief, at least five consecutive action potentials overlaying on top of the large depolarization shift (≥10 mV depolarization and ≥300 ms in duration)."}, "Cl− channels": {"test_system": "Cl− channels", "test": "Cl− current recording in cultured cortical neurons", "assay_type": "cell-based, mouse", "settings": "blocker 100 μM"}, "CLC-3 Cl− channels": {"biological_target": "T1, CLC-3 Cl− channels (Mus musculus, UniProt P51791)", "T1 construct": "CA3 pyramidal neurons of hippocampal slices from neonatal mice; from tissue; host or cells: acute hippocampal slices (CA3 pyramidal neurons), C57BL/6 mice", "T1 sequence (P51791 1-818)": "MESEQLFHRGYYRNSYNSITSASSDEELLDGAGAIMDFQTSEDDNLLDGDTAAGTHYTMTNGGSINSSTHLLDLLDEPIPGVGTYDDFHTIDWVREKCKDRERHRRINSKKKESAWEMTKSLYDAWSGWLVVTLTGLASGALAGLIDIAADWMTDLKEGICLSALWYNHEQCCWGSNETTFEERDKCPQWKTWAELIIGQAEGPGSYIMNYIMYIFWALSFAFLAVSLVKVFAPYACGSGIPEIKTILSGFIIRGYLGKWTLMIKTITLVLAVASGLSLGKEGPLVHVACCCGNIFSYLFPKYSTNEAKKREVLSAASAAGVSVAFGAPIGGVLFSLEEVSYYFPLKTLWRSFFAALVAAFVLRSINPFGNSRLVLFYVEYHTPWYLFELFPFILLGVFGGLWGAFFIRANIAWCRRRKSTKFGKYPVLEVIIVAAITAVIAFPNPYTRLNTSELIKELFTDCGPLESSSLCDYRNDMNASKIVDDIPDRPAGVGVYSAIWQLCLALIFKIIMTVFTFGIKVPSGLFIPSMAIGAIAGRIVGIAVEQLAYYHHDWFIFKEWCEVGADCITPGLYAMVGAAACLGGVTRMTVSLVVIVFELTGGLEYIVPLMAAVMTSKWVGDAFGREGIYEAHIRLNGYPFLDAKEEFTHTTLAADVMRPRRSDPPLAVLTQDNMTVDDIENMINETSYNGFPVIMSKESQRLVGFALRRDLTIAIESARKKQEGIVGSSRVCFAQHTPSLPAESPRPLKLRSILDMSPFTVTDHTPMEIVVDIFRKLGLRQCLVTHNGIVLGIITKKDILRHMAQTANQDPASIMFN", "test": "Voltage-dependent outward rectifying Cl− currents in CA3 pyramidal neurons of hippocampal slices", "assay_type": "cell-based", "settings": "P8-12 neonatal mice; 20 mM NaGcA, 10 mM Mg(GcA)2, 20 mM gluconic acid"}, "[2]": {"test_system": "GABAA-R reversal potential (EGABA)", "test": "Gramicidin-perforated whole-cell recording of GABAA-R reversal potential (EGABA) in CA3 pyramidal neurons", "assay_type": "cell-based, mouse", "settings": "for positive EGABA shift induced by 0 Mg2+ aCSF: neonatal CA3 neurons; for EGABA in 0 Mg2+ aCSF: neonatal P8-P9, 0 Mg2+ aCSF; for EGABA in 0 Mg2+ aCSF / EGABA in normal aCSF: bumetanide 10 μM, VU0240551 10 μM, NaGcA 20 mM; for EGABA in normal aCSF: neonatal P8-P9", "method": "To further test this idea, the GABAA-R reversal potential (EGABA), which governs GABA excitatory versus inhibitory function, was directly measured using gramicidin-perforated whole-cell recordings in neonatal mouse brain slices (e.g., P8-P9). As expected, epileptiform activity induced a large depolarizing shift in EGABA after treating hippocampal slices with 0 Mg^2+ aCSF for 1 h (aCSF: −59.2±2.0 mV, n=13; 0 Mg^2+: −48.2±1.1 mV, n=10). FIG. 16D. Treatment with bumetanide (Bum, 10 μM), a specific blocker for NKCC1 at low concentrations, induced a hyperpolarizing shift in EGABA (blue line) as compared to a control EGABA (dashed line). […]. […] Kaila et al., “Cation-chloride cotransporters in neuronal development, plasticity and disease” Nature Reviews. Neuroscience 15:637-654 (2014); Dzhala et al., “NKCC1 transporter facilitates seizures in the developing brain” Nature Medicine 11:1205-1213 (2005); and Loscher et al., “Cation-chloride cotransporters NKCC1 and KCC2 as potential targets for novel antiepileptic and antiepileptogenic treatments” Neuropharmacology 69:62-74 (2013). […] FIG. 16E, yellow line; Bum, −68.0±1.7 mV (n=9); 0 Mg^2++Bum, −50.2±1.4 mV (n=9); (p<0.002)."}, "[3]": {"test_system": "GABA-induced neuronal activity", "test": "Cell-attached recording of spike firing elicited by isoguvacine in CA3 pyramidal neurons", "assay_type": "cell-based, mouse", "settings": "P8-9, isoguvacine 10 μM, 30 s", "method": "Besides EGABA, the effects of different drugs on GABA-induced neuronal activity during epileptogenesis were investigated in neonatal animals (e.g., P8-9). To accurately measure GABA-induced neuronal activity, cell-attached recordings monitored spike firing elicited by local application of the GABAA-R agonist isoguvacine (10 μM, 30 s). Tyzio et al., “Maternal oxytocin triggers a transient inhibitory switch in GABA signaling in the fetal brain during delivery” Science 314:1788-1792 (2006). […] FIG. 16K, control, (n=32). […] FIG. 16K, 0 Mg^2+ (n=19). […] FIG. 16K; 0 Mg^2++Bum (n=19); and 0 Mg^2++VU (n=21). […] FIG. 16K; 0 Mg^2++NaGcA (n=18)."}, "hippocampal slices": {"test_system": "hippocampal slices", "test": "Field potential recording of epileptiform activity in hippocampal slices (CA3 pyramidal layer)", "assay_type": "cell-based, mouse", "settings": "100 μm (FIG. 10)"}, "[4]": {"test_system": "KA induced neonatal seizure", "test": "KA-induced neonatal seizure, in vivo EEG recording", "parameters": "species or system rat", "settings": "for reduction of relative EEG power: last 30 min of a 2-hr recording period after KA injection, neonatal", "method": "For example, neonatal rats were administered gluconate to determine the effect on in vivo epileptic seizures in neonatal and adult animals. […] FIGS. 14A and 14B; Dzhala et al., “NKCC1 transporter facilitates seizures in the developing brain” Nature Medicine 11:1205-1213 (2005). […] FIGS. 14C and 14D.\nTo test the in vivo anti-epilepsy effects of gluconate in neonatal and adult rodents, P8-12 Sprague-Dawley rats or 2-month old male C57BL/6 mice were deeply anesthetized with pentobarbital sodium (50 mg/kg for neonatal rat and 100 mg/kg for adult mice, intraperitoneal injection). Two stainless steel screws (1 mm in diameter) were inserted in the skull above the cortex as EEG recording electrodes, one ground electrode as well as one reference electrode were located +1.8 mm anterior to bregma, ±0.5 mm lateral to the midline, and 1 mm below the cortical surface. All electrodes were attached to a micro-connector and fixed onto the skull with dental cement. After surgery, neonatal rats were returned to their mothers and allowed to recover for 2 days prior to subsequent EEG recording. The adult mice were single housed in order to prevent damage of the implanted electrodes and allowed to recover at least 5 days before EEG recording.\nThe baseline of EEG was recorded for 0.5-1 hr to allow the animal to adapt to the environment. Kainic acid (2 mg/kg) was administered intraperitoneally (i.p.) for neonatal epilepsy induction. D-gluconic acid sodium salt (2 g/kg) or 0.9% saline was injected i.p. 10 min after KA administration. Pentylenetetrazol (PTZ) was administered intraperitoneally for inducing a stable epileptic burst activity in adult mice, and D-gluconic acid sodium salt (1 g/kg and 2 g/kg) or 0.9% saline was injected i.p. 10 min before PTZ administration. Epileptiform activity was monitored for 1 hr after PTZ injection. Qian et al., “Epileptiform response of CA1 neurones to convulsant stimulation by cyclothiazide, kainic acid and pentylenetetrazol in anaesthetized rats” Seizure 20:312-319 (2011). After the experiment, animals were injected with diazepam to protect the animals from recurrent epilepsy.\nPower was calculated in 1-min time windows by integrating the power of dominant frequency bands from 1 to 100 Hz (EEG band)."}, "neonatal seizures": {"test_system": "neonatal seizures", "settings": "infant babies, clinical trial (Pressler et al.); cited from earlier work"}}, "note": "Entries after “also recorded” stand apart in the source; their conditions may differ."}
{"compound": "O=S(=O)([O-])c1cc(N=C=S)ccc1C=Cc1ccc(N=C=S)cc1S(=O)(=O)[O-].[Na+].[Na+]", "note": "[DIDS, 4,4′-Diisothiocyanato-2,2′-stilbenedisulfonic acid disodium salt, reference compound]", "values": [{"measurement": "epileptiform activity induced by CTZ", "setting": "[1]; disodium salt", "value": "significantly inhibited; also recorded: potently inhibited"}, {"measurement": "Cl− currents (inhibition by classic Cl− channel blockers)", "setting": "Cl− channels; disodium salt", "value": "significantly suppressed; also recorded: persistent inhibition"}]}
{"compound": "O=C(O)[C@H](O)[C@@H](O)[C@H](O)[C@H](O)CO", "note": "[gluconic acid]", "values": [{"measurement": "Cl− current inhibition by gluconic acid with various counter ions", "setting": "CLC-3 Cl− channels", "value": "equivalent Cl− current inhibition"}]}
{"compound": "magnesium gluconate", "values": [{"measurement": "Cl− current inhibition by gluconic acid with various counter ions", "setting": "CLC-3 Cl− channels", "value": "equivalent Cl− current inhibition"}]}
{"compound": "Cc1csc(NC(=O)CSc2ccc(-c3ccccc3)nn2)n1", "note": "[VU0240551]", "values": [{"measurement": "positive EGABA shift induced by 0 Mg2+ aCSF", "setting": "[2]", "value": "no effect"}, {"measurement": "EGABA in 0 Mg2+ aCSF", "setting": "[2]", "value": "−48.9±1.3", "unit": "mV"}, {"measurement": "EGABA in normal aCSF", "setting": "[2]", "value": "−60.8±1.9", "unit": "mV"}, {"measurement": "spike activity elicited by isoguvacine after 0 Mg2+ treatment", "setting": "[3]", "value": "did not change"}]}
{"compound": "O=C(O)c1cc([N+](=O)[O-])ccc1NCCCc1ccccc1", "note": "[NPPB, 5-Nitro-2-(3-phenylpropylamino) benzoic acid, reference compound]", "values": [{"measurement": "epileptiform activity induced by CTZ", "setting": "[1]", "value": "significantly inhibited; also recorded: potently inhibited"}, {"measurement": "Cl− currents (inhibition by classic Cl− channel blockers)", "setting": "Cl− channels", "value": "significantly suppressed; also recorded: inhibited"}, {"measurement": "epileptic activity in neonatal hippocampal slices (other Cl− channel blockers)", "setting": "hippocampal slices", "value": "inhibit neonatal seizures"}]}
{"compound": "CCCCNc1cc(C(=O)O)cc(S(N)(=O)=O)c1Oc1ccccc1", "note": "[bumetanide]", "values": [{"measurement": "epileptic seizure (burst) activity in EEG", "setting": "[4]; P10-12, KA 2 mg/kg i.p., drug i.p. 10 min after KA: NaGcA 2 g/kg, phenobarbital 25 mg/kg, bumetanide 2 mg/kg", "value": "not as potent as gluconate"}, {"measurement": "reduction of relative EEG power", "setting": "[4]", "value": 54.3, "unit": "%"}, {"measurement": "positive EGABA shift induced by 0 Mg2+ aCSF", "setting": "[2]", "value": "did not abolish"}, {"measurement": "EGABA in 0 Mg2+ aCSF", "setting": "[2]", "value": "−50.2±1.4", "unit": "mV"}, {"measurement": "EGABA in normal aCSF", "setting": "[2]", "value": "−68.0±1.7", "unit": "mV"}, {"measurement": "spike activity elicited by isoguvacine after 0 Mg2+ treatment", "setting": "[3]", "value": "did not change"}, {"measurement": "effect in treating neonatal seizure (clinical trial)", "setting": "neonatal seizures", "value": "very limited effect"}, {"measurement": "side effects (clinical trial)", "setting": "neonatal seizures", "value": "severe side effects"}]}
{"compound": "CCC1(c2ccccc2)C(=O)NC(=O)NC1=O", "note": "[phenobarbital, reference compound]", "values": [{"measurement": "reduction of relative EEG power", "setting": "[4]", "value": 35.5, "unit": "%"}]}
{"compound": "O=C(O)c1cccnc1Nc1cccc(C(F)(F)F)c1", "note": "[NFA, niflumic acid, reference compound]", "values": [{"measurement": "epileptic activity in neonatal hippocampal slices (other Cl− channel blockers)", "setting": "hippocampal slices", "value": "inhibit neonatal seizures"}]}
